The target in this assay is T1, the present enzyme (Homo sapiens, UniProt P29466).
T1 construct: Using the anti-human ICE-p20 antibody and the antihuman ICE-p10 antibody; endogenous in cells
T1 sequence (P29466 120-297 limits assumed): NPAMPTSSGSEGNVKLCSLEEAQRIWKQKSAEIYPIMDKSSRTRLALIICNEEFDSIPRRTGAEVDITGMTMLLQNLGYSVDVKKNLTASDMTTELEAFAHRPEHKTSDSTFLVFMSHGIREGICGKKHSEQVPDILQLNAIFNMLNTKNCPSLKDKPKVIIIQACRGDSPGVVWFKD
T1 sequence (P29466 317-404 limits assumed): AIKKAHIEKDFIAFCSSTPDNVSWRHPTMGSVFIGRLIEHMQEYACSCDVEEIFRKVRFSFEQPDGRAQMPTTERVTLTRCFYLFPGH
Nature of the assay: Activity of inhibitory agent on enzyme: conversion of precursor, Western Blotting. The assay is classed as biochemical. The conditions noted are these: for band corresponding to the active form on Western Blotting: enzyme of Example 1 (THP-1 cells), 37° C. for 3 hours; for Inhibitory agent: enzyme obtainable from a human hematopoietic cell, general property; for enzyme activity inhibited: enzyme of Example 7 (HL-60 cells), methods in Examples 2-5. How it is done: A substrate solution was prepared by dissolving the precursor of the polypeptide in Example 4-1 in 100 mM Hepes buffer (pH 7.4), containing 10 v/v % glycerol, 0.1 w/v % CHAPS and 2 mM dithiothreitol, to give a concentration of 500 nM, and mixed with 350 units/ml of the enzyme solution in Example 1, followed by the incubation at 37° C. At 0 min, 10 min, 30 min, one hour, 3 hours, 6 hours and 18 hours after initiating the incubation, a portion of the reaction mixture was sampled at each sampling time and admixed with iodoacetamide to give a final concentration of 200 μg/ml to suspend the reaction. The Western Blotting method using the monoclonal antibody, as disclosed in Japanese Patent Application No.231,598/96 applied by the same applicant of the present invention, was applied to the reaction mixture to study the change on passage of time during the conversion of the precursor into the active form.
In the conversion method for precursor in Example 4-2, the present enzyme in Example 1 was admixed with 5 μM Ac-YVAD-CHO or 650 μM iodoacetamide and reacted at 37° C. for 3 hours.
A general note: Immunoblotting shows a protein as a band on a membrane.

Take `CC(=O)N[C@@H](Cc1ccc(O)cc1)C(=O)N[C@H](C(=O)N[C@@H](C)C(=O)N[C@H](C=O)CC(=O)O)C(C)C` [Ac-YVAD-CHO, acetyl-L-tyrosyl-L-varyl-L-alanyl-L-aspart-1-al]: the Inhibitory agent result is “inhibited” and the enzyme activity inhibited entry is “inhibited”. Besides, the “band corresponding to the active form on Western Blotting” value (5 μM Ac-YVAD-CHO) is on record as “no band corresponding to the active form was detected”.
`NC(=O)CI` [iodoacetamide]: the Inhibitory agent result is given as “inhibited” and the enzyme activity inhibited result is recorded as “inhibited”. Also, for the setting “650 μM iodoacetamide”, the “band corresponding to the active form on Western Blotting” value is “no band corresponding to the active form was detected”.

The values are drawn from patent US5879942A, “Processing enzyme for polypeptide” (Kabushiki Kaisha Hayashibara Seibutsu Kagaku Kenkyujo, priority 1996, dated 1999).
